Source: patent US20220348590A1, “CYCLOOXYGENASE-2 INHIBITORS AND USES THEREOF” (The Board Institute, Inc., priority 2019, published 2022)
Read-outs that look alike come from different tables or passages of the source.

Key:
ovine COX-1 (oCOX-1) = target: T1, ovine COX-1 (oCOX-1) (Ovis aries, UniProt P05979); assay: LCMS-based COX-1 enzymatic inhibition assay (PGE2 quantification); format: biochemical
T1 construct: purchased Cayman Chemicals (Ann Arbor, Mich.)
T1 sequence (P05979 25-600): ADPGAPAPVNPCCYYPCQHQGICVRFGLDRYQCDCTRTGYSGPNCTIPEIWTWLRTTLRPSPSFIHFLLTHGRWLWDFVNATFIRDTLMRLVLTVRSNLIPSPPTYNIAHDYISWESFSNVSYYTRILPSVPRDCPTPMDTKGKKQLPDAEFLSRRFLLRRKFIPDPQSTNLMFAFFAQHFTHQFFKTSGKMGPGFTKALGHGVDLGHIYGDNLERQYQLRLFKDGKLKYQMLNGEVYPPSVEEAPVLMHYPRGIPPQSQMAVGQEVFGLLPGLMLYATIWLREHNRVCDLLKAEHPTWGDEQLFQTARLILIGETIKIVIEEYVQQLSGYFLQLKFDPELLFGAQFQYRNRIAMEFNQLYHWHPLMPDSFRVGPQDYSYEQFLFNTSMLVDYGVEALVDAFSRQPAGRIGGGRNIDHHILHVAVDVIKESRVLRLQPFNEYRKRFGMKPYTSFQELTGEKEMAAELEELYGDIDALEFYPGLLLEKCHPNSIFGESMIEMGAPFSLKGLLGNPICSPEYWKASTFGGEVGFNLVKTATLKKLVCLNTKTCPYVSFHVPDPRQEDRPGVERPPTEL
Method: We have adapted a previously reported cyclooxygenase enzymatic assay utilizing LCMS quantification of PGE2 as the product of COX-1 and COX2 catalyzed conversion of arachidonic acid to evaluate the binding properties of newly synthesized ligands [Cao, 2011]. These optimized and miniaturized (384-well plates) LCMS-based COX-1 and COX2 enzymatic assays enabled us to quickly evaluate newly synthesized ligands for COX2 binding affinity and selectivity vs COX-1. Using a shorter ligand-enzyme incubation time in the LCMS assay (2 minutes vs 10 minutes) also permitted us to prioritize ligands with faster binding kinetics. Considering the relatively slow on-rate kinetics of known coxibs, due to their 3-step binding mechanism [Marnett, 2009], we believe that optimizing this critical parameter will be key to the successful development of a COX2 PET tracer. Using these enzymatic assays, we have evaluated>200 newly synthesized ligands against COX2 and >20 ligands against COX-1. Another critical property necessary for a good PET radiotracer is to have low non-specific binding (NSB) to increase the free fraction and maximize the signal to noise ratio. This property can be evaluated using in-vitro protein binding assays, and we have now evaluated>50 newly synthesized ligands in mouse, rat and human plasma protein binding (PPB) assays as well as >15 ligands in a mouse brain protein binding (BPB) assay.
Ovine COX-1 (oCOX-1), ovine COX2 (oCOX2), human recombinant COX2 (hCOX2), arachidonic acid, PGE2, d4-PGD2, and […] (labeled with deuterium atoms at positions 3 and 4) were purchased from Cayman Chemicals (Ann Arbor, Mich.). The cofactors (−)epinephrine and hematin, and the COX inhibitors indomethacin, resveratrol and diclofenac were purchased from Sigma-Aldrich (St. Louis, Mo.). Celecoxib was purchased from 3B PharmaChem International (Wuhan, China). All organic solvents were HPLC grade or better and were purchased from Thermo Fisher (Hanover Park, Ill.). Formic acid was purchased from EMD Chemicals (San Diego, Calif.). Purified water was prepared by using a Millipore Milli-Q purification system (Millipore, Billerica, Mass.). All other chemicals and solvents were ACS reagent grade, unless stated otherwise.
In an Eppendorf tube, 146 μL of 100 mM Tris.HCl (pH 8.0) buffer, 2 μL of 100 μM hematin (co-factor) and 10 μL of 40 mM L-epinephrine (co-factor) were mixed at room temperature. Next, 20 μL of Tris.HCl (pH 8.0) buffer containing 0.2 μg COX2 or 0.1 μg COX-1 (approximately 1 unit of enzyme; 1 unit COX utilizes 1 nmol 02/mg/min at 37° C.) was added, and the solution was incubated at room temperature for 2 min. A 2 μL aliquot of the COX inhibitor in DMSO was added to the enzyme solution and preincubated at 37° C. for 10 min. Negative controls were identical except that 2 μL aliquots of DMSO without inhibitor were used instead.
Each COX reaction was initiated by adding 20 μL of arachidonic acid in Tris.HCl (pH 8.0) buffer to give a final concentration of 5 μM; and the reaction was terminated after 2 min by adding 20 μL of 2.0 M HCl. The surrogate standards d4-PGE2 and d4-PGD2 (10 μL aliquot of 50 ng/mL solution in methanol) were added to correct for errors or degradation during sample handling and for variation in injection volume or instrument response during LC-MS-MS. After 30 min, PGE2, PGD2 and their surrogate standards were extracted from each incubation mixture using 800 μL hexane/ethyl acetate (50:50, v/v). The organic phase was removed, evaporated to dryness, and reconstituted in 100 μL methanol/water (50:50, v/v) for analysis using LC-MS-MS.
The concentration of PGE2 in each sample was measured using LC-MS-MS, and the percent of COX inhibition by each test solution was determined by comparing the amount of PGE2 produced in the experiment with that produced in the negative control incubation. The formation of PGD2 was measured for quality control purposes, since the levels of PGD2 should be proportional to those of PGE2. […]

[1] = target: T2, human recombinant COX2 (hCOX2) (UniProt P35354); assay: LCMS-based COX2 enzymatic inhibition assay (PGE2 quantification); format: biochemical; design: COX2 2 minutes pge2/pge2d4 area ratio Avg; other: 2 minutes; readout pge2/pge2d4 area ratio; average; COX2 2 minutes pge2/pge2d4 area ratio Avg; LLE; average LLE; COX2 2 minutes pge2 area (counts) Avg; readout pge2 area (counts); other: 2 min; "ovine COX2 (oCOX2), human recombinant COX2 (hCOX2)"; details: 2 minutes; for COX2 2 minutes pge2/pge2d4 area ratio Avg. LLE / COX2 2 minutes pge2 area (counts) Avg. LLE: average LLE; for IC50: average
T2 sequence (P35354 1-604): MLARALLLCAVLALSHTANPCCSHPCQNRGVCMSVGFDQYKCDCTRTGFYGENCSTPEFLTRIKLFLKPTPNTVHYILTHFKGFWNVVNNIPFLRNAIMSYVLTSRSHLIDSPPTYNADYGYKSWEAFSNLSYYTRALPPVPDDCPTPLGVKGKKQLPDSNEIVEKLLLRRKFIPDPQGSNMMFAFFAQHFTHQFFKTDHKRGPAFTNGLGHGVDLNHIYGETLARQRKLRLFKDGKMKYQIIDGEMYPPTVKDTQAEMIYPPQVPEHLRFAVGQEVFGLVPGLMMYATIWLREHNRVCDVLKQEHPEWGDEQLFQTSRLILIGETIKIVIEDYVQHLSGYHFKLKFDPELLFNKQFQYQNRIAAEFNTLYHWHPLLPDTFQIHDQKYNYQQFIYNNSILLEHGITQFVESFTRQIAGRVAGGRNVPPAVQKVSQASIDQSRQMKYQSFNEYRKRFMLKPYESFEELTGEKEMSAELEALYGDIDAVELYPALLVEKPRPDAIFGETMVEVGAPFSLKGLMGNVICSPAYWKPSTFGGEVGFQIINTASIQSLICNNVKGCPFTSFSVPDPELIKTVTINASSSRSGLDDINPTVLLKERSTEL
Procedure, shortened: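 Ovine COX-1 (0.1 μg) or human recombinant COX2 (0.2 μg) in 100 mM Tris.HCl pH 8.0 with hematin and epinephrine, preincubated with inhibitor 10 min at 37 °C. Reaction with 5 μM arachidonic acid stopped after 2 min with HCl; PGE2 quantified by LC-MS-MS. IC50 from 12 concentrations in triplicate.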

[2] = 10 minutes, readout pge2/pge2d4 area ratio, average LLE
[3] = 10 minutes, readout pge2/pge2d4 area ratio, average, read-out: COX1 10 minutes pge2/pge2d4 area ratio Avg. IC50
[4] = 10 minutes, readout pge2 area (counts), average LLE
[5] = 10 minutes, readout pge2 area (counts), average, read-out: COX1 10 minutes pge2 area (counts) Avg. IC50
[6] = readout pge2/pge2d4 area ratio, read-out: COX2 2 minutes pge2/pge2d4 area ratio Avg. IC50
[7] = readout pge2 area (counts), read-out: COX2 2 minutes pge2 area (counts) Avg. IC50
[8] = 10 minutes, pge2/pge2d4 area ratio, head of this section not shown, inferred
[9] = 10 minutes, pge2 area (counts), head of this section not shown, inferred

Row | SMILES | COX1 10 minutes pge2/pge2d4 area ratio Avg. LLE (ovine COX-1 (oCOX-1); [2]) | IC50 (ovine COX-1 (oCOX-1); [3]) | COX1 10 minutes pge2 area (counts) Avg. LLE (ovine COX-1 (oCOX-1); [4]) | IC50 (ovine COX-1 (oCOX-1); [5]) | COX2 2 minutes pge2/pge2d4 area ratio Avg. LLE ([1]; readout pge2/pge2d4 area ratio) | IC50 [1, 6] | COX2 2 minutes pge2 area (counts) Avg. LLE ([1]; readout pge2 area (counts)) | IC50 [1, 7] | COX1 10 minutes pge2/pge2d4 area ratio Avg. LLE (ovine COX-1 (oCOX-1); [8]) | IC50 (ovine COX-1 (oCOX-1)) | COX1 10 minutes pge2 area (counts) Avg. LLE (ovine COX-1 (oCOX-1); [9]) | IC50 (ovine COX-1 (oCOX-1); 10 minutes, pge2 area (counts), head of this section not shown, inferred, read-out: COX1 10 minutes pge2 area (counts) Avg. IC50)
1 | C[C@H](Oc1cccc(-c2ccc(S(C)(=O)=O)cc2)n1)c1cccs1 (single isomer, unassigned) [Compound 46] | 0.04315 | 50900 nM | 0.2102 | 34700 nM | 3.462 | 20.2 nM | 3.431 | 23.5 nM |  |  |  | 
2 | CS(=O)(=O)c1ccc(-c2cc(F)cc(OCc3cccs3)n2)cc1 [Compound 6] | 1.694 | 2860 nM | 1.673 | 3000 nM | 4.364 | 6.26 nM | 4.247 | 8.2 nM |  |  |  | 
3 | CS(=O)(=O)c1ccc(-c2cccc(OCc3ccc(F)s3)n2)cc1 [Compound 30] | 0.1181 | 42800 nM | 0.2149 | 34300 nM | 3.668 | 15 nM | 3.685 | 12.2 nM |  |  |  | 
4 | CS(=O)(=O)c1ccc(-c2cccc(NCc3cncs3)n2)cc1 [Compound 99] |  | 45900 nM |  |  | 4.286 | 77.9 nM | 4.248 | 86.9 nM | 1.498 |  |  | 
5 | CS(=O)(=O)c1ccc(-n2ccc3ccc(NCc4ccoc4)nc32)cc1 [Compound 83] |  |  |  |  | 3.241 | 57.9 nM | 3.278 | 53.5 nM | 0.284 | 52000 nM |  | 
6 | C[S+]([O-])c1ccc(-c2cncc(NCc3cccs3)n2)cc1 (stereo not shown) [Compound 129] |  |  |  |  | 5.405 | 152 nM | 5.443 | 141 nM |  |  | 2.83 | 50200 nM
7 | Cc1coc(CNc2cccc(-c3ccc(S(C)(=O)=O)cc3)n2)c1 [Compound 85] |  |  |  |  | 4.23 | 58.1 nM | 3.951 | 115 nM | 1.134 | 52000 nM | 1.134 | 
8 | CN(Cc1ccoc1)c1cccc(-c2ccc(S(C)(=O)=O)cc2)n1 [Compound 52] | 1.0149 | 51900 nM | 1.014 |  | 4.377 | 23.9 nM | 4.612 | 13.3 nM |  |  |  | 
9 | CS(=O)(=O)c1ccc(-c2ccc(F)c(OCc3cccs3)n2)cc1 [Compound 45] | 1.328 | 6640 nM | 1.301 | 7060 nM | 3.877 | 20 nM | 3.805 | 23.2 nM |  |  |  | 
10 | COc1ncc(NCc2ccccc2)nc1-c1ccc(S(C)(=O)=O)cc1 [Compound 49] | 1.734 |  | 1.734 |  | 5.235 | 22.2 nM | 5.228 | 21 nM |  | 52000 nM |  | 
11 | COc1ncc(NCc2cccs2)nc1-c1ccc(S(C)(=O)=O)nc1 [Compound 60] |  |  |  |  | 5.902 | 32.3 nM | 5.891 | 33.4 nM | 2.694 | 52000 nM | 2.694 | 
12 | CS(=O)(=O)c1ccc(-c2cncc(OCc3ccoc3)n2)cc1 [Compound 58] |  | 34400 nM |  |  | 5.691 | 31 nM | 5.691 | 30.9 nM | 2.5036 |  | 2.324 | 
13 | CS(=O)(=O)c1ccc(-c2coc3ccc(NCc4cccs4)nc23)cc1 [Compound 39] |  |  |  |  |  | 18.6 nM |  | 18.4 nM |  | 52000 nM |  | 
